The text below walks through data of PubChem BioAssay (NCI).

Test systems include SR leukemia; OVCAR-5 ovarian; COLO 205 colon; NCI-H226 lung; NCI-H460 lung; MALME-3M melanoma; SNB-75 CNS; NCI/ADR-RES ovarian; BT-549 breast.
Assay in all cases: NCI tumour cell line growth inhibition, 48 h

Values joined by “and” are separate entries in the source; they are usually repeats but may differ in a detail not shown here. Equal values may be shown once.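 Compound exposure: 48 hours, 5 concentrations, 96-well plates. GI50 = concentration required for 50% inhibition of growth. Definition used: TGI = concentration required for complete inhibition of growth.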 A value given as a limit tells only on which side of the number the result lay.

In the case of `O=[N+]([O-])c1ccc2c(c1)OCCOCCOc1ccc([N+](=O)[O-])cc1OCCOCCO2`, the TGI in the assay with SR leukemia, with OVCAR-5 ovarian, in the assay on COLO 205 colon, with NCI-H226 lung, in the assay with NCI-H460 lung and with MALME-3M melanoma was above 100 µM throughout. Besides, the TGI with SNB-75 CNS is above 100 µM.
On to `O=C1C(c2ccc(Cl)cc2)=[N+]([O-])c2ccccc21`, for which the TGI is above 100 µM in the assay on SR leukemia; 48.7 µM in the assay with OVCAR-5 ovarian; 32.4 µM with COLO 205 colon; 47 µM in the assay with NCI-H226 lung; 37.6 µM in the assay on NCI-H460 lung; 31.8 µM in the assay with MALME-3M melanoma. Moreover, in the assay on SNB-75 CNS, the TGI was 42.2 µM.
On to `O=C(c1ccccc1)c1ccc2cccc(O)c2n1`, for which the TGI in the assay on SR leukemia, with OVCAR-5 ovarian, with COLO 205 colon, in the assay with NCI-H226 lung, in the assay on MALME-3M melanoma and with SNB-75 CNS was above 100 µM in each case.
Consider `CC(C)(C)c1ccc(Oc2ccc(C#N)c(C#N)c2)c(C(C)(C)C)c1`, for which the TGI was 40.3 µM in the assay with SR leukemia; above 100 µM in the assay with OVCAR-5 ovarian; above 59.1 µM with COLO 205 colon; above 100 µM in the assay on NCI-H226 lung; above 71.1 µM with NCI-H460 lung; above 100 µM in the assay on MALME-3M melanoma. The compound further yielded a TGI with SNB-75 CNS above 100 µM.
Turning to `Cc1ccc(C)c(NC(=O)CC2C(=O)Nc3ccccc3S2(=O)=O)c1` (stereo unspecified), the TGI is above 100 µM with SR leukemia; above 100 µM with OVCAR-5 ovarian; above 100 µM with NCI-H226 lung; above 100 µM with NCI-H460 lung; 96.2 µM in the assay on MALME-3M melanoma; 45.7 µM in the assay on SNB-75 CNS.
`Cc1cc(N(CCC#N)CCC#N)ccc1N=Nc1ccccc1[N+](=O)[O-]`: the TGI in the assay with OVCAR-5 ovarian, with COLO 205 colon, in the assay with NCI-H226 lung, in the assay on MALME-3M melanoma and in the assay on SNB-75 CNS was above 100 µM in each case.
Consider `Brc1nc2c3ccccc3ncn2c1Br`, for which the TGI in the assay on SR leukemia is above 100 µM; with OVCAR-5 ovarian, above 100 µM; with COLO 205 colon, 29.8 µM; in the assay with NCI-H226 lung it was above 100 µM; in the assay on NCI-H460 lung, above 100 µM; in the assay with MALME-3M melanoma, 33.2 µM. The compound also returned a TGI with SNB-75 CNS of 44.2 µM.
Turning to `COC(=O)/C=C1\SC(=Nc2ccc(C(F)(F)F)cc2)N(CCc2c[nH]c3ccccc23)C1=O`, the GI50 with SR leukemia is 0.613 µM; in the assay on OVCAR-5 ovarian, 1.79 µM; in the assay on COLO 205 colon, 1.88 µM; with NCI-H226 lung it was 1.87 µM; in the assay with NCI/ADR-RES ovarian, 1.89 µM; in the assay on NCI-H460 lung, 2.04 µM. Also, the values for the GI50 in the assay on MALME-3M melanoma, in the assay on BT-549 breast and with SNB-75 CNS were 1.79 µM, 1.53 µM and 1.21 µM, respectively. Moreover, the TGI came out at 9.31 µM with SR leukemia; 3.38 µM in the assay on OVCAR-5 ovarian; 3.65 µM with COLO 205 colon; 3.62 µM in the assay with NCI-H226 lung; 4.31 µM in the assay with NCI/ADR-RES ovarian; 4.28 µM in the assay on NCI-H460 lung. Further, the TGI in the assay with MALME-3M melanoma was found to be 3.3 µM; in the assay on BT-549 breast it was 3.16 µM; with SNB-75 CNS, 2.48 µM.
With `Cc1c2cc[n+](C)cc2c(C)c2c1[nH]c1ccc(OC(C)C)cc12`, the GI50 in the assay with SR leukemia was 2.34 µM and 9.55 µM; with NCI-H226 lung, 0.395 µM and 1.07 µM. Also, the TGI is 10.5 µM and > 54.3 µM in the assay on SR leukemia; > 100 µM and 67.3 µM in the assay with OVCAR-5 ovarian; 3.08 µM and 2.97 µM in the assay on COLO 205 colon; 2.42 µM and 6.12 µM with NCI-H226 lung; 11.8 µM and 13.6 µM in the assay on NCI-H460 lung; 3.89 µM and 5.25 µM in the assay on MALME-3M melanoma. Further, in the assay on SNB-75 CNS, the TGI was 0.82 µM and 1.99 µM.
For `COc1cccc(/C=C\c2cc(OC)c(OC)c(OC)c2)c1`, the TGI with SR leukemia was 27.5 µM; in the assay on OVCAR-5 ovarian, 63.6 µM; in the assay with COLO 205 colon it was 17.3 µM; in the assay with NCI-H226 lung, 83.9 µM; with NCI-H460 lung, above 100 µM; with MALME-3M melanoma, 42.8 µM. Also, the TGI in the assay with SNB-75 CNS stood at 20.4 µM.
Turning to `COC(=O)[C@H](C)[C@H]1CC[C@@](C)([C@H]2CC3C(C)(C)[C@H]4CCC(C)=C[C@H]4C[C@@]3(C)O2)OO1` (stereo partly specified), the TGI in the assay with SR leukemia was found to be 30.5 µM; in the assay on OVCAR-5 ovarian, 26.2 µM; with COLO 205 colon it was 23.8 µM; with NCI-H226 lung it was 28.9 µM; with NCI-H460 lung, 4.62 µM; in the assay with MALME-3M melanoma, 28.3 µM. Further, the TGI in the assay with SNB-75 CNS amounted to 18.1 µM.
Take `CC1=CCP(C(F)(F)F)P(C(F)(F)F)C1` (stereo unspecified): the TGI with SR leukemia, in the assay with OVCAR-5 ovarian, with COLO 205 colon, in the assay with NCI-H226 lung, in the assay with NCI-H460 lung and with MALME-3M melanoma was above 100 µM each time. This compound yielded a TGI with SNB-75 CNS above 100 µM.
As to `Cc1ccc(C2=[N+]([O-])c3ccccc3C2=O)cc1`, the TGI in the assay on SR leukemia was above 100 µM; with OVCAR-5 ovarian, above 89.9 µM; with COLO 205 colon, above 72.8 µM; in the assay with NCI-H226 lung, above 100 µM; in the assay on NCI-H460 lung it was above 100 µM; in the assay on MALME-3M melanoma, 41 µM. Moreover, the TGI in the assay with SNB-75 CNS is above 100 µM.
Consider `COC1CCC2C(=O)CCCC2O1` (stereo unspecified), for which the TGI with SR leukemia, in the assay on OVCAR-5 ovarian, with COLO 205 colon, with NCI-H226 lung, in the assay with NCI-H460 lung and in the assay with MALME-3M melanoma was above 100 µM in each case. Besides, the TGI with SNB-75 CNS was above 100 µM.
As for `CCCCCCC(O)C/C=C/CCCCCC/C(C(=O)OC)=C(/O)C(=O)OCC` (stereo unspecified), the TGI in the assay on SR leukemia, in the assay on OVCAR-5 ovarian, with COLO 205 colon, in the assay on NCI-H226 lung, with NCI-H460 lung and in the assay with MALME-3M melanoma was above 100 µM throughout. In the assay on SNB-75 CNS, this compound came in with a TGI above 100 µM.
As for `O=C(Nc1ccccc1)O/N=C1/CCCC/C1=C\c1ccccc1`, the TGI is 43.6 µM with SR leukemia; 63.9 µM with OVCAR-5 ovarian; 28.2 µM in the assay on COLO 205 colon; 49.6 µM in the assay on NCI-H226 lung; 28.3 µM in the assay with NCI-H460 lung; 28.6 µM in the assay on SNB-75 CNS.
For the compound `CN(OC(=O)CC(=O)c1ccccc1)C(=O)Cc1ccccc1`, the TGI in the assay with SR leukemia, in the assay on OVCAR-5 ovarian, with COLO 205 colon, with NCI-H226 lung, with NCI-H460 lung and in the assay on MALME-3M melanoma was above 100 µM in each case.
